Source: patent US9693997B2, “Antiviral compounds” (priority 2013, dated 2017)
Structures can show the parent of a compound that is named as a salt. Where two headings read alike, the source gives them in different places.

Columns and labels:
[1] = test system: Pseudotyped HCV GT1b particles (HCVpp), entry into Huh7-high CD81 cells; assay: microbe, parasite or virus in culture; assay type: cell-based, HCV GT1b Con1 strain
[2] = test system: pseudotyped VSV G particles (VSVpp) in Huh7-high CD81 cells; assay: microbe, parasite or virus in culture; assay type: cell-based, vesicular stomatitis virus
[3] = Hepatitis C virus, GT1B, 72 h, read-out: HCVpp GT-1b (EC50, μM)
[4] = Vesicular stomatitis virus, 72 h, read-out: VSVpp (EC50, μM)

`COc1cc(-c2c(Cl)cc(Nc3n[nH]c(N)n3)cc2C(F)(F)F)ccc1S(=O)(=O)N[C@H]1CC[C@H](O)CC1` [Compound 167, 4′-(5-amino-1H-1,2,4-triazol-3-ylamino)-2′-chloro-N-(trans-4-hydroxycyclohexyl)-3-methoxy-6′-(trifluoromethyl)biphenyl-4-sulfonamide] gave an EC50 [1, 3] of 0.009 µM and an EC50 [2, 4] of over 10 µM.

Work on `CS(=O)(=O)c1ccc(-c2c(F)cc(Nc3n[nH]c(N)n3)cc2Cl)cc1` [Compound 30, N*3*-(2-Chloro-6-fluoro-4′-methanesulfonyl-biphenyl-4-yl)-1H-[1,2,4]triazole-3,5-diamine] yielded an EC50 [1, 3] of 0.107 µM and an EC50 [2, 4] of 1.53 µM.

`CC1(NS(=O)(=O)c2ccc(-c3c(Cl)cc(Nc4n[nH]c(N)n4)cc3C(F)(F)F)cc2)CN(C(=O)OC(C)(C)C)C1` [Compound 205, tert-butyl 3-(4′-(5-amino-1H-1,2,4-triazol-3-ylamino)-2′-chloro-6′-(trifluoromethyl)biphenyl-4-ylsulfonamido)-3-methylazetidine-1-carboxylate] gave an EC50 [1, 3] of 0.011 µM and an EC50 [2, 4] of 9.26 µM.

Compound `CS(=O)(=O)CCCN1CCC(Oc2ccc(-c3c(Cl)cc(Nc4n[nH]c(N)n4)cc3C(F)(F)F)cc2)CC1` [Compound 142, N*3*-{6-Chloro-4′-[1-(3-methanesulfonyl-propyl)-piperidin-4-yloxy]-2-trifluoromethyl-biphenyl-4-yl}-1H-[1,2,4]triazole-3,5-diamine hydrochloride] has an EC50 [1, 3] of 0.242 µM and an EC50 [2, 4] of over 10 µM.

Work on `CC(C)(C)OC(=O)N1CCCC1CCOc1ccc(-c2c(Cl)cc(Nc3n[nH]c(N)n3)cc2Cl)cc1` (centres unmarked) [Compound 266, 2-{2-[4′-(5-Amino-1H-[1,2,4]triazol-3-ylamino)-2′,6′-dichloro-biphenyl-4-yloxy]-ethyl}-pyrrolidine-1-carboxylic acid tert-butyl ester] yielded an EC50 [1, 3] of 0.103 µM and an EC50 [2, 4] of over 10 µM.

With `CC1(C)CS(=O)(=O)c2cc(-c3c(Cl)cc(Nc4n[nH]c(N)n4)cc3Cl)ccc2O1` [Compound 52, N*3*-[3,5-Dichloro-4-(2,2-dimethyl-4,4-dioxo-3,4-dihydro-2H-4lambda*6*-benzo[1,4]oxathiin-6-yl)-phenyl]-1H-[1,2,4]triazole-3,5-diamine] the EC50 [1, 3] was 0.64 µM and the EC50 [2, 4] was over 10 µM.

For `Nc1nc(Nc2cc(Cl)c(-c3ccc(OCC(O)CO)cc3)c(Cl)c2)n[nH]1` (centres unmarked) [Compound 282, 3-[4′-(5-Amino-1H-[1,2,4]triazol-3-ylamino)-2′,6′-dichloro-biphenyl-4-yloxy]-propane-1,2-diol-diamine], the EC50 [1, 3] was 0.213 µM and the EC50 [2, 4] was 39.7 µM.

In the case of `Nc1nc(Nc2cc(Cl)c(-c3ccc(F)c(C(=O)NCCO)c3)c(C(F)(F)F)c2)n[nH]1` [Compound 294, 4′-(5-amino-1H-1,2,4-triazol-3-ylamino)-2′-chloro-4-fluoro-N-(2-hydroxyethyl)-6′-(trifluoromethyl)biphenyl-3-carboxamide], the EC50 [1, 3] is reported as 0.544 µM and the EC50 [2, 4] is reported as 38.3 µM.

`CC(C)C(=O)Nc1ccc(-c2c(Cl)cc(Nc3n[nH]c(N)n3)cc2Cl)cc1` [Compound 251, N-[4′-(5-amino-1H-[1,2,4]triazol-3-ylamino)-2′,6′-dichloro-biphenyl-4-yl]-isobutyramide] showed an EC50 [1, 3] of 0.041 µM and an EC50 [2, 4] of 32.5 µM.

`CNC(=O)c1ccc(-c2c(Cl)cc(Nc3n[nH]c(N)n3)cc2C(F)(F)F)cc1F` [Compound 291, 4′-(5-amino-1H-1,2,4-triazol-3-ylamino)-2′-chloro-3-fluoro-N-methyl-6′-(trifluoromethyl)biphenyl-4-carboxamide] showed an EC50 [1, 3] of 0.325 µM and an EC50 [2, 4] of 21.5 µM.

Compound `Nc1nc(Nc2cc(Cl)c(-c3ccc(S(=O)(=O)N4CCC(F)(F)C4)cc3)c(C(F)(F)F)c2)n[nH]1` [Compound 62, N*3*-[6-Chloro-4′-(3,3-difluoro-pyrrolidine-1-sulfonyl)-2-trifluoromethyl-biphenyl-4-yl]-1H-[1,2,4]triazole-3,5-diamine] has an EC50 [1, 3] of 0.02 µM and an EC50 [2, 4] of over 10 µM.

`CS(=O)(=O)c1ccc(-c2ccc(Nc3n[nH]c(N)n3)cc2Cl)cc1` [Compound 154, N*3*-(2-Chloro-4′-methanesulfonyl-biphenyl-4-yl)-1H-[1,2,4]triazole-3,5-diamine] was tested, and the EC50 [1, 3] was 2.47 µM and the EC50 [2, 4] was 16.4 µM.

For `NC(=O)c1cccc(-c2c(Cl)cc(Nc3n[nH]c(N)n3)cc2Cl)c1` [Compound 158, 4′-(5-amino-1H-1,2,4-triazol-3-ylamino)-2′,6′-dichlorobiphenyl-3-carboxamide], the EC50 [1, 3] was 0.539 µM and the EC50 [2, 4] was over 10 µM.

`CC(C)(C)OC(=O)N1CCC(CS(=O)(=O)c2ccc(-c3c(Cl)cc(Nc4n[nH]c(N)n4)cc3C(F)(F)F)cc2)CC1` [Compound 7, 4-[4′-(5-Amino-1H-[1,2,4]triazol-3-ylamino)-2′-chloro-6′-trifluoromethyl-biphenyl-4-sulfonylmethyl]-piperidine-1-carboxylic acid tert-butyl ester] was tested, and the EC50 [1, 3] was 0.017 µM and the EC50 [2, 4] was 3.09 µM.

`CS(=O)(=O)c1cccc(-c2c(Cl)cc(Nc3n[nH]c(N)n3)cc2C(F)(F)F)c1` [Compound 195, N3-(2-chloro-3′-(methylsulfonyl)-6-(trifluoromethyl)biphenyl-4-yl)-1H-1,2,4-triazole-3,5-diamine] gave an EC50 [1, 3] of 0.212 µM and an EC50 [2, 4] of 39.7 µM.

Compound `CC(C)(C)OC(=O)N1CCC[C@H]1COc1ccc(-c2c(Cl)cc(Nc3n[nH]c(N)n3)cc2C(F)(F)F)cc1` [Compound 277, (S)-2-[4′-(5-Amino-1H-[1,2,4]triazol-3-ylamino)-2′-chloro-6′-trifluoromethyl-biphenyl-4-yloxymethyl]-pyrrolidine-1-carboxylic acid tert-butyl ester] has an EC50 [1, 3] of 0.312 µM and an EC50 [2, 4] of 27.9 µM.

`CS(=O)(=O)Nc1ccc(-c2c(Cl)cc(Nc3n[nH]c(N)n3)cc2Cl)cc1F` [Compound 46, N-[4′-(5-Amino-1H-[1,2,4]triazol-3-ylamino)-2′,6′-dichloro-3-fluoro-biphenyl-4-yl]-methanesulfonamide] was tested, and the EC50 [1, 3] was 0.414 µM and the EC50 [2, 4] was over 10 µM.

`CC(C)(CO)NS(=O)(=O)c1ccc(-c2c(Cl)cc(Nc3n[nH]c(N)n3)cc2C(F)(F)F)cc1` [Compound 226, 4′-(5-Amino-1H-[1,2,4]triazol-3-ylamino)-6′-chloro-2′-trifluoromethyl-biphenyl-4-sulfonic acid (2-hydroxy-1,1-dimethyl-ethyl)-amide] showed an EC50 [1, 3] of 0.032 µM and an EC50 [2, 4] of 5.39 µM.

With `CC(C)(C)NS(=O)(=O)c1ccc(-c2c(Cl)cc(Nc3n[nH]c(N)n3)cc2Cl)cc1` [Compound 164, 4′-(5-amino-1H-1,2,4-triazol-3-ylamino)-N-tert-butyl-2′,6′-dichlorobiphenyl-4-sulfonamide] the EC50 [1, 3] was 0.004 µM and the EC50 [2, 4] was 7.06 µM.

For `Nc1nc(Nc2cc(Cl)c(-c3ccc(S(=O)(=O)N4CCC[C@H]4C(=O)O)cc3)c(C(F)(F)F)c2)n[nH]1` [Compound 51, (S)-1-[4′-(5-Amino-1H-[1,2,4]triazol-3-ylamino)-2′-chloro-6′-trifluoromethyl-biphenyl-4-sulfonyl]-pyrrolidine-2-carboxylic acid], the EC50 [1, 3] was 0.678 µM and the EC50 [2, 4] was over 10 µM.

In the case of `CNCCOc1ccc(-c2c(Cl)cc(Nc3n[nH]c(N)n3)cc2Cl)cc1` [Compound 263, N*3*-[2,6-Dichloro-4′-(2-methylamino-ethoxy)-biphenyl-4-yl]-1H-[1,2,4]triazole-3,5-diamine], the EC50 [1, 3] is reported as 0.059 µM and the EC50 [2, 4] is reported as 3.75 µM.

`Nc1nc(Nc2cc(Cl)c(-c3ccc(S(=O)(=O)N4CC5(COC5)C4)cc3)c(C(F)(F)F)c2)n[nH]1` [Compound 69, N*3*-[6-Chloro-4′-(2-oxa-6-aza-spiro[3.3]heptane-6-sulfonyl)-2-trifluoromethyl-biphenyl-4-yl]-1H-[1,2,4]triazole-3,5-diamine] showed an EC50 [1, 3] of 0.033 µM and an EC50 [2, 4] of over 10 µM.

`Nc1nc(Nc2cc(Cl)c(-c3ccc(S(=O)(=O)N4CC(F)C4)cc3)c(C(F)(F)F)c2)n[nH]1` [Compound 233, N*3*-[6-Chloro-4′-(3-fluoro-azetidine-1-sulfonyl)-2-trifluoromethyl-biphenyl-4-yl]-1H-[1,2,4]triazole-3,5-diamine] showed an EC50 [1, 3] of 0.051 µM and an EC50 [2, 4] of over 10 µM.

With “4′-(5-amino-1H-1,2,4-triazol-3-ylamino)-2′-chloro-3-methoxy-N-(piperidin-4-yl)-6′-(trifluoromethyl)biphenyl-4-sulfonamide hydrochloride [Compound 178]” the EC50 ([1]; read-out: HCVpp GT-1b (EC50)) was 0.023 µM and the EC50 ([2]; read-out: VSVpp (EC50)) was over 10 µM.

`Nc1nc(Nc2cc(Cl)c(-c3cccc(OC4CCNCC4)c3)c(C(F)(F)F)c2)n[nH]1` [Compound 41, N*3*-[2-Chloro-3′-(piperidin-4-yloxy)-6-trifluoromethyl-biphenyl-4-yl]-1H-[1,2,4]triazole-3,5-diamine; hydrochloride] gave an EC50 [1, 3] of 0.166 µM and an EC50 [2, 4] of over 10 µM.

For `CC(C)(C)OC(=O)N1CCC(Oc2cccc(-c3c(Cl)cc(Nc4n[nH]c(N)n4)cc3C(F)(F)F)c2)CC1` [Compound 21, 4-[4′-(5-Amino-1H-[1,2,4]triazol-3-ylamino)-2′-chloro-6′-trifluoromethyl-biphenyl-3-yloxy]-piperidine-1-carboxylic acid tert-butyl ester], the EC50 [1, 3] was 0.039 µM and the EC50 [2, 4] was over 10 µM.

In the case of `CN(C(=O)OC(C)(C)C)C(C)(C)COc1ccc(-c2c(Cl)cc(Nc3n[nH]c(N)n3)cc2C(F)(F)F)cc1` [Compound 128, {2-[4′-(5-Amino-1H-[1,2,4]triazol-3-ylamino)-6′-chloro-2′-trifluoromethyl-biphenyl-4-yloxy]-1,1-dimethyl-ethyl}-methyl-carbamic acid tert-butyl ester], the EC50 [1, 3] is reported as 0.011 µM and the EC50 [2, 4] is reported as 9.26 µM.

For `CC(C)(C)OC(=O)N1CCC(Oc2ccc(-c3c(Cl)cc(Nc4n[nH]c(N)n4)cc3C(F)(F)F)cc2)CC1` [Compound 138, 4-[4′-(5-Amino-1H-[1,2,4]triazol-3-ylamino)-6′-chloro-2′-trifluoromethyl-biphenyl-4-yloxy]-piperidine-1-carboxylic acid tert-butyl ester], the EC50 [1, 3] was 0.162 µM and the EC50 [2, 4] was over 10 µM.
